Measured values taken from patent publication US20040053852A1, “Preventing desensitization of receptors” (priority 2001, published 2004).

Assays:
heart muscle = experiment: Ratio of heart weight to body weight after 1 week continuous infusion; format: in vivo; conditions: mice, FIG. 1
Protocol: Mice were treated with 10/ng/kg/day of GSNO, or with PBS (control) or with isoproterenol (at a dosage of 30 mg/kg/day) or with 10 mg/kg/day of GSNO plus 30 mg/kg/day isoproterenol, infused continuously for 1 week. The animals were sacrificed and the hearts were weighed and a ratio of heart weight to body weight was determined for each case. The results are set forth in FIG. 1 where hw:bw, i.e., the legend on the vertical axis, is the ratio of heart weight to total body weight and “ISO” means isoproterenol. […] The increase in size of heart (hypertrophy) is an advantage especially in the case of a patient on a left ventricular heart assist device awaiting heart transplant and in the case of a patient who has had heart surgery and cannot be disconnected from a heart pump without loss of heart function. The asterisks in FIG. 1 mean […] compared to control.

[1] = Patient with class 4 congestive heart failure (Example I); format: in vivo, human
Protocol: A person with class 4 congestive heart failure enters the hospital with shortness of breath and bradyacardia. […] The patient is subsequently switched to IV dobutamine at 10 μg per kg per minute titrated to cardiac output. Over the following three days the drug is increased to 30 μg per kg per minute to maintain cardiac output. […] The patient undergoes bypass surgery and does well even though they have been viewed as at high risk.

GRK = GRK phosphorylation of a synthetic peptide substrate with 32P-ATP (isolated system); format: biochemical; conditions: 500 μM, 50 μM, 5 μm, FIG. 3
Protocol: An isolated system was provided consisting of medium, GRK, standard synthetic peptide substrate and radiolabeled ^32P-adenosine triphosphate, i.e., ^32P-ATP, as a source of phosphate. Runs were carried out on the system without additives, and with 500 μM glutathione (GSH) present and with GSNO (500 μM) present or with GSNO (50 μM) present or with GSNO (5 μm) present. The amount of bound ^32P was measured in counts per minute (CPM).

[2] = Heroine addict, dose tapering, withdrawal symptoms (Example V); format: in vivo, human; conditions: ethyl nitrite intravenously 2 nmol per kg per minute
From the text: A heroine addict enters a clinic where their dose is tapered gradually. In order to avoid symptoms of withdrawal, ethyl nitrite is started intravenously at 2 nmol per kg per minute and symptoms of withdrawal, including sweats and shaking, are ameliorated.

[3] = Patient with cystic fibrosis, shortness of breath (Example VI); format: in vivo, human; conditions: inhaled GSNO 3 cc of a 10 mM solution, pH 7, 4×/day
Protocol: A person with cystic fibrosis enters the hospital complaining of shortness of breath. […] They are started on inhaled GSNO (3 cc of a 10 mM solution, pH 7, 4×/day).

[4] = Patient with metastatic prostate cancer, bone pain unresponsive to opiates (Example IV); format: in vivo, human; conditions: intravenous GSNO 10 nmol per kg per minute in conjunction with morphine
From the text: A person with metastatic prostate cancer is suffering from severe bone pain unresponsive to opiates.

β-adrenergic receptor = experiment: Saturation binding with radiolabeled I125-cyanopindolol in purified cardiac membrane of treated mice; format: in vivo; conditions: GSNO 10 ng/kg/day plus isoproterenol 30 mg/kg/day for 7 days
Protocol: Mice were treated with 10 ng/kg/day of GSNO or PBS infused continuously for 1 week through an azlet miniosmotic pump placed subcutaneously. Another set of mice was treated for 7 days with isoproterenol (30 mg/kg/day), and the fourth and final group received for 7 days, isoproterenol (30 mg/kg/day) plus GSNO (10 ng/kg/day). The mice were sacrificed and heart tissue was removed.

CC(C)NCC(O)c1ccc(O)c(O)c1 (stereo not shown) [isoproterenol, reference compound]
size of heart muscle (hw:bw, ratio of heart weight to total body weight) (heart muscle; isoproterenol 30 mg/kg/day infused continuously 1 week): increased the size of the heart muscle | symptoms (shortness of breath, bradyacardia) ([1]; intravenous isoproterenol 10 μg per minute): resolution of symptoms

N[C@@H](CSN=O)C(=O)O [S-nitroso-cysteine]
incorporation of 32P into synthetic peptide substrate (bound 32P, CPM) (GRK): same result of GRK inhibition and interference with substrate phosphorylation

CCON=O [ethyl nitrite]
symptoms of withdrawal [2]: ameliorated

N[C@@H](CCC(=O)N[C@@H](CSN=O)C(=O)NCC(=O)O)C(=O)O [GSNO, S-nitrosoglutathione]
FEV1, acute change [3]: does not change acutely | FEV1 over the following 48 hours [3]: corresponding improvement in FEV1 | symptoms of shortness of breath ([3]; following 48 hours): resolve over the following 48 hours | bone pain [4]: now relieves their pain | amount of β-adrenergic receptor (β-adrenergic receptor): 90 fmol per mg protein | size of heart muscle (hw:bw, ratio of heart weight to total body weight) (heart muscle; 10 mg/kg/day of GSNO plus 30 mg/kg/day isoproterenol infused continuously 1 week): even more effect in increasing size of heart muscle | size of heart muscle (hw:bw, ratio of heart weight to total body weight) (heart muscle; GSNO 10/ng/kg/day infused continuously 1 week): increases the size of the heart muscle | cardiac output ([1]; IV GSNO 2 nmol per kg per minute, on dobutamine 30 μg per kg per minute): cardiac output improved over the following 24 hours | incorporation of 32P into synthetic peptide substrate (bound 32P, CPM) (GRK): concentration dependent reduction in incorporation of ^32P
